This assay has as its target T1, ferredoxin PA1551 (Pseudomonas aeruginosa, UniProt Q9I3G6).
T1 sequence (Q9I3G6 1-471): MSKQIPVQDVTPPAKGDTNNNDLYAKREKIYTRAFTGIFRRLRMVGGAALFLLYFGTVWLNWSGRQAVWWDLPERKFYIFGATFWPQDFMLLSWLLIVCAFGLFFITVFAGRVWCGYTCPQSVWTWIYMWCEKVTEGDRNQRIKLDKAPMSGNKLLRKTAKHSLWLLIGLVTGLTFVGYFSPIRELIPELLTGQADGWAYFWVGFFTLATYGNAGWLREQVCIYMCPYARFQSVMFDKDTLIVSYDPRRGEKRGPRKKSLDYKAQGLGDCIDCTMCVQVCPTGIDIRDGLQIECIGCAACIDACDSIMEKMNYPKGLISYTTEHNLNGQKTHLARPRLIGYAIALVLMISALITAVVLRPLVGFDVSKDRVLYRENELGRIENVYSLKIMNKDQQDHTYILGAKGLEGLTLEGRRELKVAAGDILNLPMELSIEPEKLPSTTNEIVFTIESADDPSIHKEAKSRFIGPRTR
Kind of assay: microscale thermophoresis. It counts as binding.

The Kd is a measure of binding affinity in units of concentration. High values mean lower affinity, low ones higher affinity.

On to `CCCCCCC(=O)NCc1c(O)c(=O)cc(C)n1C` [10d, 2-(heptanamido)methyl 3-hydroxy-1,6-dimethylpyridin-4(1H)-one], for which the Kd was determined as 0.057 µM.

(Values after publication PMC12775422 (NPJ Biofilms and Microbiomes, 2025).)
